Results on one molecule are retold here after ChEMBL document CHEMBL1141296, “Brunneins A-C, beta-carboline alkaloids from Cortinarius brunneus” (J Nat Prod, 2007).

One test deals with PC-3. As to the kind of experiment: Cytotoxicity against human PC3 cells upto 100 uM after 24 hrs by XTT method. Format: functional, cell-based. On the technique in general: Tetrazolium assays rely on reduction of a dye to a coloured formazan, in cell work by metabolically active cells.
The target of test [1] is Butyrylcholinesterase (Equus caballus) (UniProt Q9N1N9). The experiment in a line: Inhibition of equine BChE at 100 uM by Ellman's method. A general note: DTNB colorimetry detects thiols as they appear.
For test [2], the target named is T1, Acetylcholinesterase (Bos taurus) (UniProt P23795).
T1 sequence (whole entry): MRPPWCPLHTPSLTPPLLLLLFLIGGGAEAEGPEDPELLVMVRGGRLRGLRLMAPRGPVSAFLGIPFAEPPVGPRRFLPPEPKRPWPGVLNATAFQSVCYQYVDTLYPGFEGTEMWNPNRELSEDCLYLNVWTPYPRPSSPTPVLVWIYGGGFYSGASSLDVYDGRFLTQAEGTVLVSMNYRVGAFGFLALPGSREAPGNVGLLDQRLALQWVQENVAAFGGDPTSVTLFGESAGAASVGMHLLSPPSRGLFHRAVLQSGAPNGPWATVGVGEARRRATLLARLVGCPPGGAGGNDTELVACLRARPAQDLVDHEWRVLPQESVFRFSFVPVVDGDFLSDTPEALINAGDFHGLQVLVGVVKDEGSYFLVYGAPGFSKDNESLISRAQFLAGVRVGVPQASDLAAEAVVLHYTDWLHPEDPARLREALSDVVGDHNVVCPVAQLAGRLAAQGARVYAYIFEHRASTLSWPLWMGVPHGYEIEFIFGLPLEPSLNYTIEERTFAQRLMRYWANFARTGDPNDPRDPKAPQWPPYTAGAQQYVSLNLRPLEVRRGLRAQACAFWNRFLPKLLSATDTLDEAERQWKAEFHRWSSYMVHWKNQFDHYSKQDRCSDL
As to the kind of experiment: Inhibition of bovine AChE at 100 uM by Ellman's method.

The structures appear in SMILES notation. Some results are limits rather than exact numbers.

Take `CC1=N[C@H](C(=O)O)Cc2c1[nH]c1cc(O)ccc21`: the Activity result in the test on PC-3 is “Not toxic”. For the same molecule, the inhibition in test [1] and in test [2] was under 50% in each case.
